Measured values published in patent US20190030009A1, “COMPOUNDS AND COMPOSITIONS FOR THE TREATMENT OF CRYPTOSPORIDIOSIS” (Novartis AG, priority 2016, published 2019).

Assays:
[1] = test system: Cryptosporidium parvum; experiment: Cytopathic effect (CPE) based assay, C. parvum infected HCT-8 cells; conditions: HCT-8 host cell viability (CellTiter-Glo), 48 hours treatment, read-out: Cp CPE EC50
Summary of the method: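 HCT-8 cells were batch-infected with excysted C. parvum (Iowa isolate) oocysts at MOI 1:2 (host:parasite) for 3 h at 37 °C, then seeded and incubated 24 h before compound addition. Compounds were given as 3-fold dilution series (final DMSO <0.5%). Host-cell loss (cytopathic effect) was read as viability with CellTiter-Glo.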

[2] = test system: C. parvum; experiment: High content imaging assay, C. parvum infected HCT-8 cells; format: cell-based; conditions: Cryptosporidium parvum, percentage of infected HCT-8 cells, 48 hours treatment, read-out: Cp HCl IC50
Experimental: (§1) Human ileocecal colorectal adenocarcinoma cells (HCT-8 [HRT-18] ATCC, CCL-34) were maintained in T-175 flasks (Corning, 431080) in complete growth medium (RPMI-1640 medium (Gibco, 11875) supplemented with 10% heat-inactivated horse serum (Gibco, 26050), 1×MEM non-essential amino acids (Gibco, 11140), 10 mM HEPES (Gibco, 15630), 100 units/mL penicillin, and 100 units/mL streptomycin) at 37° C. and 5% CO2 in a humidified incubator. Cultures were passaged twice weekly using 10 mL of 1×Phosphate-Buffered Saline (PBS) without Ca^2+ and Mg^2+ (Gibco, 20012) for washing and 3-5 mL per T-175 flask of TrypLE Express Enzyme (Gibco, 12604) for dissociation of adherent cells.
Cryptosporidium parvum oocysts purchased from the Sterling Laboratory, University of Arizona (Iowa isolate) were purified from infected calf feces using discontinuous sucrose and cesium chloride centrifugation gradients and stored in PBS solution containing 0.01% Tween 20, 100 units/mL penicillin and 100 units/mL gentamicin.
(§2) Excystation and infection protocols were developed following established methods with some modifications (Gut & Nelson, 1999, Upton et aL, 1995, Bessoff et aL, 2013). Briefly, oocysts were primed in 1 mL of 10 mM hydrochloric acid in 1× Hank's Balanced Salt Solution (HBSS) (Gibco, 14025) for 10 minutes with agitation at 1000 rpm, 37° C. on an Eppendorf thermomixer, then washed twice with 1 mL of room temperature non-acidic 1× HBSS by centrifugation at 13,000 rpm for 3 minutes at 25° C. Primed oocysts were further excysted at a concentration of 1×10^6 oocysts/μL in parasite infection medium consisting of a pre-warmed and pre-gassed 1:1 formulation of Leibovitz's L-15 medium (Gibco, 11415) and UltraCULTURE medium (Lonza, 12-725F) supplemented with 2 mM sodium taurocholate (Sigma, 86339-1), 10% heat-inactivated horse serum, and 200 μM L-ascorbic acid (Sigma, 95210) at 25° C. for 10 minutes. HCT-8 monolayer cells were infected with excysted cryptosporidium at a specified multiplicity of infection (MOI). All dilutions for subsequent assays were performed in parasite infection medium without sodium taurocholate. Pre-excysted oocysts were enumerated microscopically using a C-Chip disposable hemocytometer (NanoEnTek, DHC-N01).
(§3) Compound powders were dissolved in neat DMSO (Fisher, D4121) to 10 mM and stored at 4° C. prior to dilution into source plates. Dilutions were carried out using a Microlab STAR liquid handler (Hamilton) to obtain compound source plates containing the ten-point or eight-point three fold dilutions starting from 10 mM in duplicates. Source plates were stored at 4° C. prior to spotting into assay plates. Before administration, all compound source plates were equilibrated to room temperature. A specified volume of compounds from source plate were spotted to assay plate using an Echo Acoustic liquid handler (LABCYTE, 550) so that the final DMSO concentration was less than 0.5%. Each assay plate a specified number of DMSO-treated negative control wells and a well-studied potent active compound at 100 nM as positive control. As a quality control, all positive and negative-control wells were used to calculate a Z′-value and signal to noise ratio (S:N) for each plate.
Imaging assays were developed following established Cryptosporidium spp labeling and in vitro infection models with some modifications (Bessoff et aL, 2013, Gut & Nelson, 1999). Briefly, 2×10^4 HCT-8 cells per well were seeded into 384-well, flat black clear-bottom OPERA assay plates (Greiner, 789071-G) at 20 μL per well in complete growth medium using a Multidrop Combi liquid handler (ThermoScientific, 5840300) and standard tube dispensing cassette (ThermoScientific, 24072670) and incubated for 24 hours at 37° C. The HCT-8 cells were infected with 10 μL per well of 1×10^4 excysted C. parvum oocysts (host to parasite MOI of 1:0.5) or 10 μL per well of 4×10^4 excysted C. hominis oocysts (MOI 1:2) in parasite infection medium using the Multidrop and incubated at 37° C. […]

[3] = test system: Cryptosporidium hominis; experiment: Cytopathic effect (CPE) based assay, C. hominis infected HCT-8 cells; conditions: HCT-8 host cell viability (CellTiter-Glo), 48 hours treatment, read-out: Ch CPE EC50
Experimental: as §1
Cryptosporidium hominis oocysts were purchased from the Tufts University Cummings School of Veterinary Medicine (courtesy of Dr. Saul Tzipori). C. hominis oocysts were purified from infected gnotobiotic piglet feces and stored in PBS solution containing 0.01% Tween-20, 100 units/mL penicillin and 100 units/mL gentamicin. C. parvum and C. hominis oocysts less than three months old from the date of shedding were used in infection experiments.
as §2, §3
Cryptosporidium spp are obligate-intracellular parasites that infect intestinal epithelial cells and the host cell is killed upon parasite egress. […] The loss of epithelial cells is due to both rapid parasite invasion/multiplication/egress and also pro-inflammatory immune response (Adams et al., 1994, Griffiths et al., 1994). We have observed a consistent cytopathic effect (CPE) in HCT-8 cells with C. spp infection the loss of viability of the host cells using CellTiter-Glo reagent.
Confluent HCT-8 cells in T-175 flasks were directly infected with excysted oocysts at an MOI (host to parasite) of 1:2 for C. parvum and 1:4 for C. hominis. […]

SMILES	EC50 [1]	IC50 [2]	EC50 [3]
CNC(=O)c1ccc(-c2cnn3ccc(C(=O)N(c4ccc(C(F)(F)F)cn4)C(C)C)cc23)cc1 [Example 153]	39 nM	11 nM	70 nM
CCNC(=O)c1ccc(-c2cnn3ccc(C(=O)N(c4ccc(C#N)cn4)C4CC4)cc23)cc1 [Example 127]	102 nM	62 nM	71 nM
N#Cc1ccc(N(C(=O)c2ccn3ncc(-c4ccc(C(=O)NC5CC5)cc4)c3c2)C2CC2)nc1 [Example 123]	2990 nM	–	3150 nM
CNC(=O)c1ccc(-c2cnn3ccc(C(=O)N(c4ccc(C#N)c(OC)n4)C4CC4)cc23)cc1 [Example 149]	55 nM	32 nM	–
CCN(C(=O)c1ccn2ncc(-c3ccc(C(=O)NC)cc3)c2c1)c1ccc(C#N)cn1 [Example 90]	68 nM	52 nM	–
CCN(C(=O)c1ccn2ncc(-c3ccc(C(=O)NC)nc3)c2c1)c1ccc(C#N)cn1 [Example 150]	1070 nM	382 nM	–
CNC(=O)c1ccc(-c2cnn3ccc(C(=O)N(c4ccc(C#N)cn4)C(C)C)cc23)cc1 [Example 91]	129 nM	–	139 nM
N#Cc1ccc(N(C(=O)c2ccn3ncc(-c4ccc(C(N)=O)cc4)c3c2)C2CC2)nc1 [Example 120]	172 nM	–	276 nM
CNC(=O)c1ccc(-c2cnn3ccc(C(=O)N(NC)c4ccc(C#N)cc4)cc23)cn1 [Example 92]	310 nM	94 nM	–
CNC(=O)c1ccc(-c2cnn3ccc(C(=O)N(c4ccc(C(F)(F)F)cn4)C4CCC4)cc23)cc1 [Example 160]	85 nM	29 nM	–
CCN(C(=O)c1ccn2ncc(-c3ccc(C(=O)NC)cc3)c2c1)c1ccc(C(F)(F)F)cn1 [Example 96]	50 nM	24 nM	–
CC(C)NC(=O)c1ccc(-c2cnn3ccc(C(=O)N(c4ccc(C#N)cn4)C4CC4)cc23)cc1 [Example 121]	8640 nM	–	> 20000 nM
CNC(=O)c1ccc(-c2cnn3ccc(N(C)C(=O)c4ccc(C#N)cn4)cc23)cc1 [Example 94]	368 nM	123 nM	456 nM
N#Cc1ccc(N(C(=O)c2ccn3ncc(-c4ccc(C(=O)NC5COC5)cc4)c3c2)C2CC2)nc1 [Example 131]	2730 nM	–	4110 nM
CNC(=O)c1ccc(-c2cnn3ccc(C(=O)N(c4ccc(Cl)cn4)C4CC4)cc23)cc1 [Example 124]	103 nM	60 nM	–
CNC(=O)c1ccc(-c2cnn3ccc(C(=O)N(c4ccc(C#N)cn4)C4CCC4)cc23)cc1 [Example 112]	270 nM	–	351 nM
